# Reference: patent US20260053811A1, “METHODS OF TREATING HYPERTENSION IN OBESE SUBJECTS” (Mineralys Therapeutics, Inc., priority 2022, published 2026)
# Tested on: hypertensive subjects
# Assay: Adverse events (TEAEs, SAEs, AESI, study drug discontinuation, dose modification);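 further: counts of spontaneously reported adverse events in the Safety Analysis Set, subjects grouped by treatment actually received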
# Format: in vivo, human
# Settings: Part 1
# Text: In analyses performed on the Safety Analysis Set, subjects will be analyzed according to their actual treatment received.
smiles,measurement,setting,value
CC(=O)N[C@H]1CC[C@H](NC(=O)CN2CCN(c3nncc(-c4ccc(C)cc4)n3)CC2)CC1 [Compound A HBr],"On-treatment TEAE: Infections and infestations, Moderate",12.5 mg QD (N = 23),0 n (%)
same,On-treatment TEAE: Investigations,12.5 mg QD (N = 23),3 (13.0) n (%)
same,"On-treatment TEAE: Investigations, Mild",12.5 mg QD (N = 23),3 (13.0) n (%)
same,"On-treatment TEAE: Investigations, Moderate",12.5 mg QD (N = 23),0 n (%)
same,On-treatment TEAE: Metabolism and nutrition disorders,12.5 mg QD (N = 23),6 (26.1) n (%)
same,"On-treatment TEAE: Metabolism and nutrition disorders, Mild",12.5 mg QD (N = 23),4 (17.4) n (%)
same,"On-treatment TEAE: Metabolism and nutrition disorders, Moderate",12.5 mg QD (N = 23),1 (4.3) n (%)
same,On-treatment TEAE: Nervous system disorders,12.5 mg QD (N = 23),2 (8.7) n (%)
same,"On-treatment TEAE: Nervous system disorders, Mild",12.5 mg QD (N = 23),2 (8.7) n (%)
same,On-treatment TEAE: Orthostatic hypotension,12.5 mg QD (N = 23),2 (8.7) n (%)
same,"On-treatment TEAE: Orthostatic hypotension, Mild",12.5 mg QD (N = 23),2 (8.7) n (%)
same,On-treatment TEAE: Psychiatric disorders,12.5 mg QD (N = 23),0 n (%)
same,"On-treatment TEAE: Psychiatric disorders, Moderate",12.5 mg QD (N = 23),0 n (%)
same,On-treatment TEAE: Urinary tract infection,12.5 mg QD (N = 23),1 (4.3) n (%)
same,"On-treatment TEAE: Urinary tract infection, Mild",12.5 mg QD (N = 23),1 (4.3) n (%)
same,On-treatment TEAE: Vascular disorders,12.5 mg QD (N = 23),3 (13.0) n (%)
same,"On-treatment TEAE: Vascular disorders, Mild",12.5 mg QD (N = 23),2 (8.7) n (%)
same,"On-treatment TEAE: Vascular disorders, Moderate",12.5 mg QD (N = 23),1 (4.3) n (%)
same,"On-treatment TEAE: any, Mild",12.5 mg QD (N = 23),12 (52.2) n (%)
same,"On-treatment TEAE: any, Moderate",12.5 mg QD (N = 23),3 (13.0) n (%)
same,"On-treatment TEAE: any, Severe",12.5 mg QD (N = 23),1 (4.3) n (%)
same,Subjects with any On-treatment TEAEs leading to withdrawal from study drug,12.5 mg QD (N = 23),4 (17.4) n (%)
same,TEAE leading to permanent discontinuation from study drug: Activated partial thromboplastin time prolonged,12.5 mg QD (N = 23),0 n (%)
same,TEAE leading to permanent discontinuation from study drug: Cardiac disorders,12.5 mg QD (N = 23),1 (4.3) n (%)
same,TEAE leading to permanent discontinuation from study drug: Coronary artery disease,12.5 mg QD (N = 23),1 (4.3) n (%)
same,TEAE leading to permanent discontinuation from study drug: Dizziness,12.5 mg QD (N = 23),1 (4.3) n (%)
same,TEAE leading to permanent discontinuation from study drug: Hyperkalaemia,12.5 mg QD (N = 23),2 (8.7) n (%)
same,TEAE leading to permanent discontinuation from study drug: Hypertension,12.5 mg QD (N = 23),0 n (%)
same,TEAE leading to permanent discontinuation from study drug: Hypotension,12.5 mg QD (N = 23),0 n (%)
same,TEAE leading to permanent discontinuation from study drug: Investigations,12.5 mg QD (N = 23),0 n (%)
same,TEAE leading to permanent discontinuation from study drug: Metabolism and nutrition disorders,12.5 mg QD (N = 23),2 (8.7) n (%)
same,TEAE leading to permanent discontinuation from study drug: Nervous system disorders,12.5 mg QD (N = 23),1 (4.3) n (%)
same,TEAE leading to permanent discontinuation from study drug: Orthostatic hypotension,12.5 mg QD (N = 23),0 n (%)
same,TEAE leading to permanent discontinuation from study drug: Vascular disorders,12.5 mg QD (N = 23),0 n (%)
same,On-treatment TEAE: Blood and lymphatic system disorders,25 mg BID (N = 30),2 (6.7) n (%)
same,"On-treatment TEAE: Blood and lymphatic system disorders, Mild",25 mg BID (N = 30),2 (6.7) n (%)
same,On-treatment TEAE: Blood creatinine increased,25 mg BID (N = 30),0 n (%)
same,"On-treatment TEAE: Blood creatinine increased, Mild",25 mg BID (N = 30),0 n (%)
same,On-treatment TEAE: Cardiac disorders,25 mg BID (N = 30),0 n (%)
same,On-treatment TEAE: Cortisol decreased,25 mg BID (N = 30),1 (3.3) n (%)
same,"On-treatment TEAE: Cortisol decreased, Mild",25 mg BID (N = 30),1 (3.3) n (%)
same,On-treatment TEAE: Dizziness,25 mg BID (N = 30),0 n (%)
same,On-treatment TEAE: Gastrointestinal disorders,25 mg BID (N = 30),1 (3.3) n (%)
same,"On-treatment TEAE: Gastrointestinal disorders, Mild",25 mg BID (N = 30),1 (3.3) n (%)
same,On-treatment TEAE: General disorders and administration site conditions,25 mg BID (N = 30),0 n (%)
same,"On-treatment TEAE: General disorders and administration site conditions, Mild",25 mg BID (N = 30),0 n (%)
same,On-treatment TEAE: Glomerular filtration rate decreased,25 mg BID (N = 30),0 n (%)
same,"On-treatment TEAE: Glomerular filtration rate decreased, Mild",25 mg BID (N = 30),0 n (%)
same,On-treatment TEAE: Headache,25 mg BID (N = 30),2 (6.7) n (%)
same,"On-treatment TEAE: Headache, Mild",25 mg BID (N = 30),2 (6.7) n (%)
same,On-treatment TEAE: Hyperkalaemia,25 mg BID (N = 30),9 (30.0) n (%)
same,"On-treatment TEAE: Hyperkalaemia, Mild",25 mg BID (N = 30),7 (23.3) n (%)
same,"On-treatment TEAE: Hyperkalaemia, Moderate",25 mg BID (N = 30),2 (6.7) n (%)
same,"On-treatment TEAE: Hyperkalaemia, Severe",25 mg BID (N = 30),0 n (%)
same,On-treatment TEAE: Hypertension,25 mg BID (N = 30),1 (3.3) n (%)
same,"On-treatment TEAE: Hypertension, Moderate",25 mg BID (N = 30),0 n (%)
same,On-treatment TEAE: Infections and infestations,25 mg BID (N = 30),3 (10.0) n (%)
same,"On-treatment TEAE: Infections and infestations, Mild",25 mg BID (N = 30),2 (6.7) n (%)
same,"On-treatment TEAE: Infections and infestations, Moderate",25 mg BID (N = 30),1 (3.3) n (%)
same,On-treatment TEAE: Investigations,25 mg BID (N = 30),3 (10.0) n (%)
same,"On-treatment TEAE: Investigations, Mild",25 mg BID (N = 30),2 (6.7) n (%)
same,"On-treatment TEAE: Investigations, Moderate",25 mg BID (N = 30),1 (3.3) n (%)
same,On-treatment TEAE: Metabolism and nutrition disorders,25 mg BID (N = 30),10 (33.3) n (%)
same,"On-treatment TEAE: Metabolism and nutrition disorders, Mild",25 mg BID (N = 30),8 (26.7) n (%)
same,"On-treatment TEAE: Metabolism and nutrition disorders, Moderate",25 mg BID (N = 30),2 (6.7) n (%)
same,On-treatment TEAE: Nervous system disorders,25 mg BID (N = 30),3 (10.0) n (%)
same,"On-treatment TEAE: Nervous system disorders, Mild",25 mg BID (N = 30),2 (6.7) n (%)
same,On-treatment TEAE: Orthostatic hypotension,25 mg BID (N = 30),0 n (%)
same,"On-treatment TEAE: Orthostatic hypotension, Mild",25 mg BID (N = 30),0 n (%)
same,On-treatment TEAE: Psychiatric disorders,25 mg BID (N = 30),0 n (%)
same,"On-treatment TEAE: Psychiatric disorders, Moderate",25 mg BID (N = 30),0 n (%)
same,On-treatment TEAE: Urinary tract infection,25 mg BID (N = 30),3 (10.0) n (%)
same,"On-treatment TEAE: Urinary tract infection, Mild",25 mg BID (N = 30),2 (6.7) n (%)
same,On-treatment TEAE: Vascular disorders,25 mg BID (N = 30),1 (3.3) n (%)
same,"On-treatment TEAE: Vascular disorders, Mild",25 mg BID (N = 30),1 (3.3) n (%)
same,"On-treatment TEAE: Vascular disorders, Moderate",25 mg BID (N = 30),0 n (%)
same,"On-treatment TEAE: any, Mild",25 mg BID (N = 30),14 (46.7) n (%)
same,"On-treatment TEAE: any, Moderate",25 mg BID (N = 30),4 (13.3) n (%)
same,"On-treatment TEAE: any, Severe",25 mg BID (N = 30),0 n (%)
same,Subjects with any On-treatment TEAEs leading to withdrawal from study drug,25 mg BID (N = 30),1 (3.3) n (%)
same,TEAE leading to permanent discontinuation from study drug: Activated partial thromboplastin time prolonged,25 mg BID (N = 30),0 n (%)
same,TEAE leading to permanent discontinuation from study drug: Cardiac disorders,25 mg BID (N = 30),0 n (%)
same,TEAE leading to permanent discontinuation from study drug: Coronary artery disease,25 mg BID (N = 30),0 n (%)
same,TEAE leading to permanent discontinuation from study drug: Dizziness,25 mg BID (N = 30),0 n (%)
same,TEAE leading to permanent discontinuation from study drug: Hyperkalaemia,25 mg BID (N = 30),1 (3.3) n (%)
same,TEAE leading to permanent discontinuation from study drug: Hypertension,25 mg BID (N = 30),1 (3.3) n (%)
same,TEAE leading to permanent discontinuation from study drug: Hypotension,25 mg BID (N = 30),0 n (%)
same,TEAE leading to permanent discontinuation from study drug: Investigations,25 mg BID (N = 30),0 n (%)
same,TEAE leading to permanent discontinuation from study drug: Metabolism and nutrition disorders,25 mg BID (N = 30),1 (3.3) n (%)
same,TEAE leading to permanent discontinuation from study drug: Nervous system disorders,25 mg BID (N = 30),0 n (%)
same,TEAE leading to permanent discontinuation from study drug: Orthostatic hypotension,25 mg BID (N = 30),0 n (%)
same,TEAE leading to permanent discontinuation from study drug: Vascular disorders,25 mg BID (N = 30),1 (3.3) n (%)
same,On-treatment TEAE: Blood and lymphatic system disorders,50 mg QD (N = 28),0 n (%)
same,"On-treatment TEAE: Blood and lymphatic system disorders, Mild",50 mg QD (N = 28),0 n (%)
same,On-treatment TEAE: Blood creatinine increased,50 mg QD (N = 28),0 n (%)
same,"On-treatment TEAE: Blood creatinine increased, Mild",50 mg QD (N = 28),0 n (%)
same,On-treatment TEAE: Cardiac disorders,50 mg QD (N = 28),1 (3.6) n (%)
same,On-treatment TEAE: Cortisol decreased,50 mg QD (N = 28),0 n (%)
same,"On-treatment TEAE: Cortisol decreased, Mild",50 mg QD (N = 28),0 n (%)
same,On-treatment TEAE: Dizziness,50 mg QD (N = 28),2 (7.1) n (%)
same,On-treatment TEAE: Gastrointestinal disorders,50 mg QD (N = 28),1 (3.6) n (%)
same,"On-treatment TEAE: Gastrointestinal disorders, Mild",50 mg QD (N = 28),1 (3.6) n (%)
